Values quoted from earlier work as cited in patent US20160213782A1, “POLYURETHANES AS ORAL DRUG DELIVERY PLATFORM” (Universiteit Gent, priority 2013, published 2016).
Counter-ions that a name gives are not always drawn.

Conditions: for aqueous solubility in 100 ml at 25° C.: in 100 ml water; for drug solubility: as given in legend of FIG. 1

Structure (SMILES)	aqueous solubility in 100 ml at 25° C.	drug solubility
Cn1c(=O)c2c(ncn2CC(O)CO)n(C)c1=O (centres unmarked) [Dyph, 7-(2,3-dihydroxypropyl)-theophylline]	33 g	
COCCc1ccc(OCC(O)CNC(C)C)cc1 (centres unmarked) [MPT, Metoprolol tartrate]		> 1000 mg/mL
Cn1c(=O)c2[nH]cnc2n(C)c1=O [TH, Theophylline]	0.7 g	10 mg/mL
CC(=O)Nc1ccc(O)cc1 [acetaminophen]	1.4 g	
